Inhibition and CC50 data for one compound are collected here from US20140296266A1, “THERAPEUTIC COMPOUNDS” (Gilead Sciences, Inc., priority 2013, published 2014).

In one data set the test system is HIV-IIIb. Kind of data set: Test A: Antiviral Assay in MT4 Cells. The class given is cell-based, HIV-1. As to conditions: Human immunodeficiency virus 1, IIIB, MT4, 120 h, read-out: % inhibition at 2 μM (percent inhibition of virus-induced cell killing), 2 μM drug concentration; MT-4 cells mixed with HIV-IIIb (m.o.i. 0.003), 5 days, CellTiter-Glo; calculated from the dose response curve. The method, then:
(§1) For the antiviral assay, 40 μL of 1× test concentration of 3-fold serially diluted compound in culture medium with 10% FBS was added to each well of a 384-well plate (10 concentrations) in quadruplicate. MT-4 cells were next mixed with HIV-IIIb at an m.o.i of 0.003 for 1 hour, after which time 35 μL of virus/cell mixture (2000 cells) was immediately added to each well containing 40 μL of diluted compound. The plates were then incubated at 37° C. for 5 days. After 5 days of incubation, 25 μl of 2× concentrated CellTiter-Glo™ Reagent (catalog #G7571, Promega Biosciences, Inc., Madison, Wis.) was added to each well containing MT-4 cells. Cell lysis was carried out by incubating at room temperature for 10 min and then chemiluminescence was read.

Data set [1] can be described thus: Test B: Cytotoxicity Assay. The class given is cell-based. As to conditions: human, uninfected MT-4 cells, same protocol as Test A, CellTiter-Glo. The procedure:
as §1
Compound cytotoxicity and the corresponding CC50 values was determined using the same protocol as described in the antiviral assay (Test A) except that uninfected cells were used.
In general terms: In ATP-based viability assays light output follows the ATP content of the culture.

Molecules are shown by their SMILES.

Usually CC50 stands for the concentration at which the toxic effect on the cells reaches its halfway point. As for `CC(C)(O)C#Cc1ccc(-c2cccc3c(=O)[nH]c(=O)[nH]c23)c([C@H](Cc2cc(F)cc(F)c2)NC(=O)Cn2nc(C(F)(F)F)c3c2C(F)(F)[C@@H]2C[C@H]32)n1` [Compound 17, 2-((3bS,4aR)-5,5-difluoro-3-(trifluoromethyl)-3b,4,4a,5-tetrahydro-1H-cyclopropa[3,4]cyclopenta[1,2-c]pyrazol-1-yl)-N—((S)-2-(3,5-difluorophenyl)-1-(3-(2,4-dioxo-1,2,3,4-tetrahydroquinazolin-8-yl)-6-(3-hydroxy-3-methylbut-1-ynyl)pyridin-2-yl)ethyl)acetamide], the inhibition at 2 µM in the data set on HIV-IIIb is 80%. In addition, in data set [1], it took 12.6 µM to reach half-maximal cytotoxicity (CC50 at 5 days).
